Measurements taken from ChEMBL document CHEMBL1201862, “PubChem BioAssay data set” (2004).
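The compound was tested at five concentrations on cells cultured in 96-well plates, with a 48-hour exposure period. GI50 is the concentration that inhibits growth by half.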 Active and inactive are the calls of the source. Cut-off read from the data, not from the text of the source: active = GI50 up to about 1.1 µM and inactive = higher.

How the values were obtained:
Assay in all cases: NCI tumour cell line growth inhibition, 48 h
786-0 = test system: 786-0
A498 = test system: A498
CCRF-CEM = test system: CCRF-CEM
DU-145 = test system: DU-145
HCT-116 = test system: HCT-116
HT-29 = test system: HT-29
Hs-578T = test system: Hs-578T
IGROV-1 = test system: IGROV-1
K562 = test system: K562
MCF7 = test system: MCF7
NCI-H460 = test system: NCI-H460
OVCAR-3 = test system: OVCAR-3
OVCAR-5 = test system: OVCAR-5
PC-3 = test system: PC-3
SF-268 = test system: SF-268
SF-539 = test system: SF-539
SR = test system: SR
TK-10 = test system: TK-10
UO-31 = test system: UO-31
MDA-MB-231 = test system: MDA-MB-231

Measured: GI50

COc1cc2c(c(O)c1OC)C(=O)[C@@H]1CCC(=O)N1C2c1ccccc1 (some centres not stated)
inactive: 786-0 > 100 µM | A498 > 100 µM | CCRF-CEM 30.5 µM | DU-145 > 100 µM | HCT-116 66.8 µM | HT-29 87.7 µM | Hs-578T 40.5 µM | IGROV-1 > 100 µM | K562 38.6 µM | MCF7 > 100 µM | NCI-H460 > 100 µM | OVCAR-3 65.6 µM | OVCAR-5 > 100 µM | PC-3 31.8 µM | SF-268 > 100 µM | SF-539 > 100 µM | SR 46.6 µM | TK-10 > 100 µM | UO-31 39.6 µM

CCOC(=O)c1nnsc1NC(=O)Nc1ccc(Cl)cc1
inactive: 786-0 21.1 µM | CCRF-CEM > 100 µM | DU-145 56.5 µM | HCT-116 25.4 µM | HT-29 54.3 µM | Hs-578T 30.1 µM | IGROV-1 31 µM | K562 > 100 µM | MDA-MB-231 20.7 µM | NCI-H460 7 µM | OVCAR-3 43.2 µM | OVCAR-5 > 100 µM | PC-3 33 µM | SF-268 57.5 µM | TK-10 > 100 µM | UO-31 31.1 µM

COc1ccc2c(c1)OCC1Cc3cc4c(cc3OC21)OCO4 (configuration not stated)
inactive: 786-0 34.8 µM | A498 > 100 µM | CCRF-CEM 51.1 µM | DU-145 56.4 µM | HCT-116 31 µM | HT-29 35.1 µM | IGROV-1 43 µM | K562 33.1 µM | MCF7 46.8 µM | MDA-MB-231 > 100 µM | OVCAR-3 47.9 µM | OVCAR-5 60.7 µM | PC-3 41.6 µM | SF-268 55.7 µM | SF-539 39.6 µM | SR 40.6 µM | TK-10 28.1 µM | UO-31 38.6 µM

CN1CSC(=S)N(c2cccc(C(F)(F)F)c2)C1
inactive: 786-0 26.2 µM | A498 28.3 µM | CCRF-CEM 30.4 µM | DU-145 41.9 µM | HCT-116 34 µM | HT-29 22.5 µM | Hs-578T 28.9 µM | IGROV-1 18.7 µM | K562 24 µM | MCF7 17.3 µM | NCI-H460 20.2 µM | OVCAR-3 30 µM | OVCAR-5 18.6 µM | PC-3 25.1 µM | SF-268 23.1 µM | SF-539 20.7 µM | SR 23.4 µM | TK-10 28.6 µM | UO-31 26.4 µM

CCOC(=O)c1cc(-c2cc(OC)c(OC)c([N+](=O)[O-])c2)c([N+](=O)[O-])n1C
inactive: 786-0 > 10 µM | CCRF-CEM 3.24 µM | HCT-116 5.33 µM | HT-29 3.18 µM | Hs-578T 4.21 µM | IGROV-1 5.9 µM | K562 2.83 µM | NCI-H460 3.9 µM | OVCAR-3 7.67 µM | OVCAR-5 > 10 µM | SF-268 > 10 µM | SF-539 8.32 µM | SR 4.81 µM | TK-10 > 10 µM | UO-31 > 10 µM

CN1CCN(c2nc3ccccc3nc2C(=O)c2ccc(Cl)cc2)CC1
inactive: 786-0 33.1 µM | A498 41.7 µM | CCRF-CEM 48.6 µM | DU-145 > 100 µM | HCT-116 35.2 µM | HT-29 38.2 µM | Hs-578T 56.2 µM | IGROV-1 83.6 µM | K562 40.8 µM | MCF7 27.7 µM | NCI-H460 27.1 µM | OVCAR-3 44 µM | OVCAR-5 > 100 µM | PC-3 51.2 µM | SF-268 46.9 µM | SF-539 69.2 µM | SR 47.4 µM | TK-10 35.6 µM | UO-31 31 µM

COc1ccc2c(C(=O)c3cn(CCN4CCOCC4)c4ccccc34)cccc2c1
inactive: 786-0 > 20.8 µM | A498 > 100 µM | CCRF-CEM 4.45 µM | DU-145 > 23.6 µM | HCT-116 27.2 µM | HT-29 53.6 µM | IGROV-1 > 91 µM | K562 36.6 µM | MCF7 5.01 µM | MDA-MB-231 > 100 µM | NCI-H460 4.65 µM | OVCAR-3 13.6 µM | OVCAR-5 > 100 µM | PC-3 30.8 µM | SF-268 > 80.2 µM | SF-539 > 80 µM | SR 47.5 µM | TK-10 > 100 µM | UO-31 > 32 µM

CN1C(=O)C(O)CC1c1cccc(F)c1 (configuration not stated)
inactive: 786-0 > 100 µM | A498 > 100 µM | CCRF-CEM > 100 µM | DU-145 > 100 µM | HCT-116 > 100 µM | HT-29 > 100 µM | IGROV-1 > 100 µM | K562 > 100 µM | MCF7 > 100 µM | MDA-MB-231 > 100 µM | NCI-H460 > 100 µM | OVCAR-3 > 100 µM | OVCAR-5 > 100 µM | PC-3 > 100 µM | SF-539 > 100 µM | SR > 100 µM | UO-31 > 100 µM
